Source: US20080293969A1, “18F-Labeled Daa Analogues and Method of Labeling These Analogues as Positron Emission Tomography (Pet) Tracers For Imaging Peripheral Benzodiazepine Receptors” (GE Healthcare Limited, priority 2005, published 2008)

How the values were obtained:
[1] = molecular target: T1, peripheral benzodiazepine receptors (PBR) (Sus scrofa, UniProt Q6UN27); assay: Frozen section autoradiography; assay type: binding, pig
T1 construct: from tissue; host or cells: pig adrenal cryosections (rat heart and rat brain sections were run in the same assay)
T1 sequence (Q6UN27 1-169): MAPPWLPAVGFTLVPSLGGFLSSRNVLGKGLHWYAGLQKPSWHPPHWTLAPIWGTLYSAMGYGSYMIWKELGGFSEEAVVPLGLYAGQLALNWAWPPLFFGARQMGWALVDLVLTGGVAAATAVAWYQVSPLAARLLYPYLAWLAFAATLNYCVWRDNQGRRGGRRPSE
Protocol: (§1) Frozen Section Autoradiography.
(§2) Cryosections of pig adrenal, rat heart and rat brain were incubated with [^18F] labeled N-(2,5-dimethoxybenzyl)-3-fluoro-N-(5-fluoro-2-phenoxy-phenyl)propanamide (SAN1) for 40 min at R.T. in 50 mM Tris-HCl, pH 7.4, in the presence or absence of 1 μM PK11195 (selective PBR ligand). Thereafter, sections were washed in buffer 3×1 min, dried in a heated oven (37° C.) and exposed to phosphor imaging plates for 240 min. Assessment of the selectivity of the radioligand for PBRs was assessed by comparing the regional distribution of radioactivity with known distribution of PBRs in tissue. Another parameter investigated was the blocking effect in sections which were co-incubated with an excess of PK11195.

[2] = tested on: peripheral benzodiazepine receptors (PBR); assay: Frozen section autoradiography; assay type: binding, pig; conditions: frozen section autoradiography
Protocol: as §1, §2

[3] = Biodistribution in rats; assay type: in vivo, male Sprague-Dawley rats; conditions: 10 MBq/kg tail vein, 15 min post-injection
Protocol: SAN1 at 10 MBq/kg was injected in the tail vein of male Sprague-Dawley rats. Rats were sacrificed 15 min post-injection and blood, cortex, olfactory bulb, adrenal and cerebellum were dissected, weighed and radioactivity in the organs was measured. Uptake in organs was expressed as Standardized Uptake Value, SUV. The scope of this experiment was to assess blood brain penetration of the radiolabeled compound as well as its distribution to organs known to express PBR, e.g. adrenal medulla. […] Additionally, we observed a large uptake of SAN1 in adrenal which is the peripheral organ with the highest density of PBRs. Biodistribution data from 4 rats was summarized and is shown in the diagram below, error bars represent the SEM.

[4] = molecular target: PBR (Homo sapiens, UniProt P30536); conditions: reported, Drug Dev. Research, 2001, vol. 52, 475-484; cited from earlier work
PBR, sequence (P30536 whole entry, species assumed): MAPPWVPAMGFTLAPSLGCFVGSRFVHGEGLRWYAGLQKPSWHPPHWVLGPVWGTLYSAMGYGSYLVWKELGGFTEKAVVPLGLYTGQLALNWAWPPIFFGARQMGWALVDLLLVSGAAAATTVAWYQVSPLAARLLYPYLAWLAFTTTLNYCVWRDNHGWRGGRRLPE

COc1ccc(OC)c(CN(C(=O)CC[18F])c2cc(F)ccc2Oc2ccccc2)c1 [SAN1, [^18F] labeled N-(2,5-dimethoxybenzyl)-3-fluoro-N-(5-fluoro-2-phenoxy-phenyl)propanamide]
blocking of adrenal medulla uptake by an excess of PK11195 ([1]; co-incubated with 1 μM PK11195): completely blocked | uptake in adrenal medulla ([1]; cryosections of pig adrenal, incubated 40 min at R.T., 50 mM Tris-HCl pH 7.4): high uptake | binding and specificity for PBR-rich tissues [2]: good binding and specificity | brain to blood ratio ([3]; all regions analyzed (cortex, olfactory bulb, cerebellum), particularly olfactory bulb): above 1 | uptake in adrenal ([3]; uptake expressed as SUV): large uptake

CC(=O)N(Cc1ccccc1OC(C)C)c1ccc(Cl)cc1Oc1ccccc1 [DAA1097, N-(4-chloro-2-phenoxyphenyl)-N-(2-isopropoxybenzyl)-acetamide]
affinity and selectivity for PBR [4]: high affinity selective ligands

COc1ccc(OC)c(CN(C(C)=O)c2cc(F)ccc2Oc2ccccc2)c1 [DAA1106, N-(2,5-dimethoxybenzyl)-N-(5-fluoro-2-phenoxyphenyl)acetamide]
affinity and selectivity for PBR [4]: high affinity selective ligands
